Measurements published in article PMC7688068 (Journal of medicinal chemistry, 2020).

Assays:
mPTPB [1] = target: T1, mPTPB (Mycobacterium tuberculosis, UniProt I6WXK4); assay type: biochemical
Raw264.7 cells = assay type: in vitro ADME, mouse; conditions: for cellular uptake (cellular bioavailability): LC-MS-based method; for cellular permeability compared to positive control compound 9 of ref 55: 20 μM input, 2 h, 37 °C
[2] = system: mouse embryonic fibroblasts (MEF cells); conditions: 72 h, up to 25 μM
mPTPB [3] = target: T1, mPTPB; assay type: biochemical; remark: listed apart in the source
[4] = system: Raw 264.7 vector cells (pcN-HA); test: signaling in vector control cells, western blot, IFN-γ stimulated; assay type: cell-based, mouse; conditions: IFN-γ stimulation

T1 sequence (I6WXK4 whole entry, looked up): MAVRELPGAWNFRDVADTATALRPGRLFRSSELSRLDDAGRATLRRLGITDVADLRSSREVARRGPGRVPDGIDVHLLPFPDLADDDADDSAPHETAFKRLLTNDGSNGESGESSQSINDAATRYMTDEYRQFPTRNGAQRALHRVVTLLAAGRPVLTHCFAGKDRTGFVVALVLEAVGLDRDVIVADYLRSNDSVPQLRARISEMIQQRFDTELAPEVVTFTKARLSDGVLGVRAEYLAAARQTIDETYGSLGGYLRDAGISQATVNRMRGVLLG

Row | Compound | fold less potency compared to corresponding alkyne analogue (mPTPB [1]) [fold] | cellular uptake (cellular bioavailability) (Raw264.7 cells) | cellular permeability compared to positive control compound 9 of ref 55 (Raw264.7 cells) | further results
1 | O=C(O)C(=O)Nc1ccc(/C=C\c2ccc(C(F)(F)F)cc2)cc1 [Compound 10, (Z)-2-Oxo-2-((4-(4-(trifluoromethyl)styryl)phenyl)amino)acetic Acid] | 45 |  |  | 
2 | O=C(O)C(=O)Nc1ccc(/C=C\c2ccccc2)cc1 [Compound 9, (Z)-2-Oxo-2-((4-styrylphenyl)amino)acetic Acid] | 3 |  |  | 
3 | O=C(O)C(=O)Nc1ccc(C#Cc2ccc(C(F)(F)F)cc2F)cc1 [Compound 4v, 2-((4-((2-Fluoro-4-(trifluoromethyl)phenyl)ethynyl)phenyl)amino)-2-oxoacetic Acid] |  | can easily be taken up |  | 
4 | CC(C)(C)OC(=O)Nc1ccc(C#Cc2ccc(NC(=O)C(=O)O)cc2)cc1 [Compound 4s, 2-((4-((4-((tert-Butoxycarbonyl)amino)phenyl)ethynyl)phenyl)amino)-2-oxoacetic Acid] |  |  | better cellular permeability | cytotoxicity (cell viability, MTT) [2]: did not exhibit any significant cytotoxicity
5 | O=C(O)C(=O)Nc1ccc(C#Cc2ccc(C(F)(F)F)cc2Cl)cc1 [Compound 4t, 2-((4-((2-Chloro-4-(trifluoromethyl)phenyl)ethynyl)phenyl)amino)-2-oxoacetic Acid] |  | can easily be taken up | better cellular permeability | mode of mPTPB inhibition (mPTPB [3]): reversible and competitive inhibitor; pAKT, pERK1/2 and pp38 levels compared to vehicle-treated cells [4]: no significant change; cytotoxicity (cell viability, MTT) [2]: did not exhibit any significant cytotoxicity
6 | O=C(O)C(=O)Nc1ccc(C#Cc2ccc(C(F)(F)F)cc2Br)cc1 [Compound 4u, 2-((4-((2-Bromo-4-(trifluoromethyl)phenyl)ethynyl)phenyl)amino)-2-oxoacetic Acid] |  | can easily be taken up | better cellular permeability | 
7 | O=C(O)C(=O)Nc1ccc(CCc2ccccc2)cc1 [Compound 11, 2-Oxo-2-((4-phenethylphenyl)amino)acetic Acid] | 5 |  |  | 
8 | O=C(O)C(=O)Nc1ccc(C#Cc2ccc(C(F)(F)F)cc2)cc1 [Compound 4k, 2-Oxo-2-((4-((4-(trifluoromethyl)phenyl)ethynyl)phenyl)amino)acetic Acid] |  | can easily be taken up | better cellular permeability | 
9 | O=C(O)C(=O)Nc1ccc(CCc2ccc(C(F)(F)F)cc2)cc1 [Compound 12, 2-Oxo-2-((4-(4-(trifluoromethyl)phenethyl)phenyl)amino)acetic Acid] | 13 |  |  | 
